Values joined by “and” are separate entries in the source; they are usually repeats but may differ in a detail not shown here. Equal entries are not always repeated. Each block holds one molecule with its values, some of them ahead of it.
Legend:
[1] = system: sarcoma 180 ascitic tumor; assay: survival time of mice with sarcoma 180 ascitic tumor; assay type: in vivo
sarcoma 180 = assay: solid tumor induced by sarcoma 180 tumor cells; assay type: in vivo, ICR mice; settings: for tumor weight: control 7.1±0.1; for tumor weight / tumor volume: mean±S.E.M.; for tumor volume: control 8804±465.3
Protocol: For solid tumor development, ICR mice were injected with 0.1 ml of sarcoma 180 suspensions into the right hind limbs. After 6 days of tumor transplantation, mice randomized into six groups were injected i.p. with AS (50 and 100 mg/kg) and 5-FU (25 mg/kg) once a day for 9 days. Eight days later after treatment, animals were sacrificed by cervical […], and solid tumors were removed and weighed.

[2] = system: Lewis lung carcinoma cells; assay: tumor growth in Lewis lung carcinoma-bearing mice; assay type: in vivo, C57BL/6 mice; settings: for tumor growth inhibited (volume): vs saline
[3] = system: calf pulmonary artery endothelial (CPAE) cells; assay: CPAE cell proliferation by MTT assay; assay type: cell-based; settings: for growth inhibition: 3-day treatment
Protocol: The effect of acharan sulfate on in vitro cell proliferation was carried out using calf pulmonary artery endothelial (CPAE) cells as follows.
CPAE cells were seeded in a 24 well plate at a cell density of 10^5 cells/well in 90% RPMI and 10% FBS. After 24 h incubation, the cells were treated with various concentrations of AS. Three days later, new media and MTT solution were added to each well. After incubation at 37° C. for 4 h, the absorbance of treated cells at 540 nm was compared to that of control cells.

[4] = system: bFGF-induced angiogenesis; assay: mouse matrigel plug assay; assay type: in vivo, C57BL/6J mice
Protocol: The effect of acharan sulfate on the inhibition of angiogenesis was also evaluated in the matrigel plug assay. This assay was performed as previously described (Passaniti et al., 1992). Acharan sulfate, dissolved in water, bFGF and heparin, dissolved in 0.1% bovine serum albumen (BSA)/phosphate buffered saline (PBS) were mixed with liquid matrigel (Collaborative Biomedical Products, Bedford, Mass.) in proportions not exceeding 1% of the total volume of matrigel. A mixture of 0.5 ml matrigel with AS or vehicle was injected subcutaneously into C57BL/6J mice. After injection, the matrigel rapidly formed a plug. […] The amount of hemoglobin (Hb) inside the matrigel was measured using the Drabkin method (Drabkin and Austin, 1932) and Drabkin reagent 525 for the quantitation of blood vessel formation. The concentration of Hb was calculated based on a Hb standard measured simultaneously.
To evaluate the effect of AS on ongoing angiogenic process in the mouse matrigel plug assay matrigel, heparin (10 units/500 μl), and bFGF (100 ng/500 μl) with or without AS were injected s.c. into C57BL/6 mice. […] We next measured the hemoglobin content inside the matrigel plugs to quantify the angiogenesis. Whereas bFGF and heparin increased Hb concentration to 11.8 g/dl and the Hb concentration inside the control was 0.3 g/dl, AS decreased the heparin and bFGF-elevated Hb quantity to about 8.6 g/dl (FIG. 3). […]

bFGF = bFGF (Homo sapiens, UniProt P09038); settings: in vitro (Wang et al., 1997); cited from earlier work
bFGF, sequence (P09038 143-288, species assumed): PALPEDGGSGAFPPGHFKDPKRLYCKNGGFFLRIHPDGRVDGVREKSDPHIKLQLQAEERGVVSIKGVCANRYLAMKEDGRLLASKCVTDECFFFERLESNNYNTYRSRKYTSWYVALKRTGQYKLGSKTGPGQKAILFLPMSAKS

matrix metalloprotease = assay: antiprotease activity; assay type: biochemical
[5] = system: chick embryonic angiogenesis; assay: chorioallantoic membrane (CAM) assay; assay type: in vivo, chicken; settings: for Eggs showing antiangiogenesis: avascular zone exceeded 3 mm
Protocol: The effect of acharan sulfate on the inhibition of angiogenesis was performed using the choroioallantoic membrane (CAM) assay. These assays essentially followed previously published procedures (Tanaka et al, 1986; Oikawa et al., 1990). In brief, fertilized chicken eggs were incubated in the constant humidified breeder at 37° C. On the third day of incubation, about 2 ml of egg albumin were aspirated by an 18-gauge hypodermic needle, to detach the developing CAM from the shell. One and half days later, sample-loaded thermanox coverslips (Nunc, Naperville, Ill.) were air-dried and applied to the CAM surface for testing of angiogenesis inhibition by AS. Two days later, 1 ml of 10% fat emulsion (Intralipose) was injected into the chorioallantoic membrane and the avascular zone was observed under a dissecting microscope. Inhibition of angiogenesis was assessed when the avascular zone exceeded 3 mm. In order to abolish the possibility of contaminant in AS, the depolymerized product by heparinase II as described above was also tested for the antiangiogenic activity. The concentration of AS used in this assay was selected based on the concentration of heparin that had previously been applied in the same assay (Collen et al., 2000).
On day 4.5, CAMs were treated with different doses of AS for 2 days. The dose-response relationship for the appearance of avascular zone was determined.

[6] = system: Lewis lung carcinoma cells; assay: tumor growth in Lewis lung carcinoma-bearing mice; assay type: in vivo, C57BL/6 mice; settings: for tumor volume: saline 4534.4; for mean tumor weight reduction: day 21, vs saline; for tumor weight: day 21, saline 4.5±0.7
Protocol: Male C57BL/6 mice were inoculated s.c. in the back with LLC cells (1×10^6/animal) on day 0. After tumor volume was at least 60-100 mm^3, AS was administered into the subcutaneous region near the tumor mass at two doses of 10 and 30 mg/kg for 15 days. The size of tumors in all groups was measured using a dial-caliper and the volume of tumors was determined using the formula width^2×length×0.52 (Voest et al., 1995; Cao et al., 1995). The effects of AS on tumor growth and host survival were also measured by evaluating tumor volumes, tumor weights and percentage increase in lifespan of tumor hosts, respectively (Oguchi et al., 1987; Kusumoto, 1991). For calculating the survival time, mice were inoculated i.p. with […] sarcoma 180 cells/mouse on day 0 and the treatment with two doses of AS (50 and 100 mg/kg, i.p.) were started 24 h after inoculation for nine consecutive days. The control group was treated with saline. Median survival time (MST) for each group (n=7) was observed and the antitumor activity of the test compounds were compared with that of control group by measuring the increase in lifespan.

[7] = 10 mg/kg daily s.c., end of 15-day treatment
[8] = 50 mg/kg i.p. once a day for 9 days, vs control
[9] = 50 mg/kg i.p. once a day for 9 days

Molecule: O=c1[nH]cc(F)c(=O)[nH]1 [5-FU, 5-fluorouracil]
median survival time (MST) ([1]; 25 mg/kg, control 22.4±2.2): 42.8 ± 4.2 days
tumor weight inhibited (sarcoma 180; 25 mg/kg i.p. once a day for 9 days, vs control): 75.1% and 55.8%
tumor weight (sarcoma 180; 25 mg/kg i.p. once a day for 9 days): 1.8 ± 0.3 g and 3.1 ± 0.3 g
tumor volume decreased (sarcoma 180; 5-FU 25 mg/kg i.p. once a day for 9 days, vs control): 82.1%
tumor volume (sarcoma 180; 5-FU 25 mg/kg i.p. once a day for 9 days): 1572±201.5 mm^3

loss of weight of treated mice ([2]; 10 mg/kg i.v. every five day, compared with control mice): marked
Molecule: COc1cccc2c1C(=O)c1c(O)c3c(c(O)c1C2=O)C[C@@](O)(C(=O)CO)C[C@@H]3O[C@H]1C[C@H](N)[C@H](O)[C@H](C)O1 [Doxorubicin]
tumor weight reduction ([2]; 10 mg/kg i.v. every five day, day 21, vs saline): 68.0%
tumor weight ([2]; 10 mg/kg i.v. every five day, day 21, saline 4.5±0.7): 1.6 ± 0.2 g
injection area ([2]; 10 mg/kg i.v. every five day, over the treatment): significantly damaged
tumor growth inhibited (volume) ([2]; 10 mg/kg i.v. every five day): 62.0%
tumor volume ([2]; 10 mg/kg i.v. every five day, saline 4534.4): 1721.6 mm^3

Molecule: Acharan sulfate [AS]
growth inhibition ([3]; 1 μg/ml): 15.2%
growth inhibition ([3]; 10 μg/ml): 24.9%
cytotoxic effect on CPAE cell viability ([3]; increasing concentrations, data not shown): no cytotoxic effect
vessel induction in matrigel ([4]; fifty micrograms of AS in combination with bFGF and heparin): slightly prevented the vessel induction
Hb concentration inside the matrigel plug ([4]; fifty micrograms of AS with bFGF and heparin, s.c., seven days, bFGF and heparin alone 11.8, control 0.3): about 8.6 g/dl
effect on heparin's bFGF mitogenicity (bFGF): interfered with heparin's bFGF mitogenicity in vitro
antiprotease activity (matrix metalloprotease): no detectable antiprotease activity
lifespan increased against the control group ([1]; 30 mg/kg/day for 9 consecutive days): 1.5 fold
median survival time ([1]; 30 mg/kg/day for 9 consecutive days, control 22.4±2.2): 34.3 ± 2.6 days
lifespan prolonged against the control group ([1]; 50 mg/kg/day for 9 consecutive days): 1.8 fold
median survival time ([1]; 50 mg/kg/day for 9 consecutive days, control 22.4±2.2): 40.6 ± 3.1 days
% inhibition ([5]; 5 μg/egg): 48.3%
Eggs showing antiangiogenesis ([5]; 5 μg/egg, 29 eggs tested): 14
% inhibition ([5]; 10 μg/egg): 55.6%
Eggs showing antiangiogenesis ([5]; 10 μg/egg, 27 eggs tested): 15
tumor growth inhibited (volume) [2, 7]: 32.8%
tumor volume inhibited (sarcoma 180; [8]): 45.0%
tumor weight inhibited (sarcoma 180; [8]): 39.6%
tumor weight (sarcoma 180; [9]): 4.3 ± 0.1 g
tumor volume (sarcoma 180; [9]): 4799±345.2 mm^3
tumor volume [6, 7]: 3049.2 mm^3
mean tumor weight reduction ([6]; 10 mg/kg s.c.): 37.8%
tumor weight ([6]; 10 mg/kg s.c.): 2.8 ± 0.2 g
tumor growth inhibited (volume) ([6]; 30 mg/kg daily s.c., end of 15-day treatment, vs saline): 38.1%
tumor volume ([6]; 30 mg/kg daily s.c., end of 15-day treatment): 2809.3 mm^3
mean tumor weight reduction ([6]; 30 mg/kg s.c.): 48.9%
tumor weight ([6]; 30 mg/kg s.c.): 2.3 ± 0.2 g
body weight of mice over the course of treatment ([6]; 10 and 30 mg/kg s.c., 15 days): did not lose weight

Molecule: CC1=C(/C=C/C(C)=C/C=C/C(C)=C/C(=O)O)C(C)(C)CCC1 [Retinoic acid, all-trans-retinoic acid, reference compound]
% inhibition ([5]; 1 μg/egg): 80%
Eggs showing antiangiogenesis ([5]; 1 μg/egg, 25 eggs tested): 20

Reference: US20050075312A1, “Antitumor inhibitors and use thereof” (priority 2003, published 2005)
